In US20110053996A1, “Use of phenyltriazoles for controlling insects and spider mites by watering, droplet application or dip application or by treating seed” (Bayer CropScience AG, priority 2009, published 2011):

Key:
Tetranychus urticae = Tetranychus urticae test on bush beans; drench application; format: in vivo; details: bush bean plants, 0.25 mg of ai/plant, 14 days after infestation
Description: (§1) To produce a suitable preparation of active compound, 1 part by weight of active compound is mixed with the stated amounts of solvent and emulsifier, and the concentrate is diluted with water to the desired concentration.
Bush bean plants (Phaseolus vulgaris) are watered with the respective product solution. The stated concentration refers to the amount of active compound per plant. After about 1 week, the treated plants are infested with the greenhouse red spider mite (Tetranychus urticae).
After 2 weeks, the effect in % is determined. 100% means that all of the spider mites have been killed; 0% means that none of the spider mites have been killed.

Liriomyza trifolii = Liriomyza trifolii test on bush beans; drench application; format: in vivo; details: bush bean plants, 0.5 mg of ai/plant, 14 days after infestation
Description: as §1
Bush bean plants (Phaseolus vulgaris) are watered with the respective product solution. The stated concentration refers to the amount of active compound per plant. After about 1 week, the treated plants are infested with the leaf-mining fly (Liriomyza trifolii).
After 2 weeks, the effect in % is determined. 100% means that all of the leaf-mining flies have been killed; 0% means that none of the leaf-mining flies have been killed.

Cc1cc(F)c(-n2nc(C(F)(F)F)nc2N)cc1[S+]([O-])CC(F)(F)F (centres unmarked) [(I-4)]
% Activity (according to Abbott) (Tetranychus urticae): 100%
% Activity (according to Abbott) (Liriomyza trifolii): 100%
